Where no end group is shown, it is not given here.

Data set [1] is described as follows: in vitro. To be noted: human.
A short description of data set [2]: in vitro. Conditions: human, MRC-5 cells.
The nature of data set [3]: in vitro. Conditions: human, HepG2-2.2.15 cells.
Data set [4] deals with Streptococcus pneumoniae. It is filed as cell-based. To be noted: 5 micrograms per ml.
Data set [5] deals with MRSA. Conditions: 5 micrograms per ml.
Data set [6] relates to Pseudomonas aeruginosa. It is filed as cell-based. To be noted: 5 micrograms per ml.
In data set [7] the test system is MRC-5 cells. The data set can be described thus: Cytotoxicity in MRC-5 cells (CellTiter 96 cell viability). To be noted: 6 days incubation.

For “VPIQKVQDDTKTLIKTIVTRINDISHTQSVSSKQK-OH [Leptin (22-56)]”, the viability – broadly, the share of living cells, or the viability signal relative to a control – at 10 micrograms per ml in data set [1] amounted to 93.5%. In addition, in data set [2], the viability at 144 h was found to be 100%. In addition, the viability at 144 h, 10 micrograms per ml in data set [3] came to 100%. The “% inhibition” value in data set [4], in data set [5] and in data set [6] was 0.0% each time.

`Nc1nc(O)c2ncn(COC(CO)CO)c2n1` [Ganciclovir]: in data set [7], the “% Cell viability” value worked out at 100%.

The values above are taken from patent publication US20100210536A1, “USE OF LEPTIN (22-56 ) AS A THERAPEUTIC AGENT” (priority 2007, published 2010).
